Assay results from paper PMC5906549, “Cathelicidin-Derived Antimicrobial Peptides Inhibit Zika Virus Through Direct Inactivation and Interferon Pathway” (Frontiers in Immunology, 2018).
Peptide text beside a SMILES is read from it.

Assays:
in vitro = settings: African green monkey
Description: (§1) Cell viability was examined by the CellTiter 96 ®Aqueous One Solution Cell Proliferation Assay (Promega, Madison, WI, USA). Vero cells and astrocytes were seeded into 96-well tissue culture plates (Fisher Scientific) and treated with fresh growth medium containing different concentrations of each peptide for 2 or 4 days at 37°C. At the experimental end point, MTS [3-(4,5-dimethylthiazol-2-yl)-5-(3-carboxymethoxyphenyl)-2-(4-sulfophenyl)-2H-tetrazolium] was added to the cultures and incubated for 1 h. The absorbance at 490 nm was recorded through BioTek Gen5 data analysis software (Winooski), VT, optical density (OD) values were used as a representation of cell viability.
(§2) (A) Vero cells were treated with doses of peptides ranging from 1 to 50 µM. After 24 h, the cultures were washed and treated with same doses of peptides in fresh medium for another 24 h. Cell viability was determined by a colorimetric MTS assay. Results shown are the averages ±SD of experiments performed in triplicate. Data were analyzed by non-linear regression. The EC50 was assessed for each of the antimicrobial peptides. (B) Vero cells were treated with doses of peptides ranging from 0.4 to 10 µM for 2 h then infected with ZIKV at the MOI of 0.5. After 24 h, the cultures were washed and treated with same doses of peptides in fresh medium for another 24 h. ZIKA RNA was detected in total cellular RNA through real-time RT-PCR. Data were normalized to GAPDH and presented as fold change (in log scale) compared with ZIKV group. ** p < 0.01 and *** p < 0.001, as compared with the ZIKV group without the peptide treatment (ANOVA, N = 3).
(§3) A, B) Vero cells were treated with 10 µM AMPs for 2 days or 4 days as outlined in the figure. For 4-day treatment, Vero cells were repeatedly treated with 10 µM AMPs at 2-day post-treatment. At the experimental end point, cell viability was determined by a colorimetric MTS assay CellTiter 96® AQueous One Solution Assay (Promega, Madison, WI) based on the manufacture’s instruction. Results were normalized as percentage of cell viability in control astrocytes. CTL, control. * denotes p < 0.05, ** denotes p < 0.01, *** denotes p < 0.001 as compared to the control group without peptide treatment (ANOVA, N = 3).

Vero cells = test: in vitro
Description: as §1, §2, §3

ZIKV strain MR766 = test: Viral attachment assay at 4°C in human fetal astrocytes; format: cell-based, Zika virus; settings: astrocytes pre-incubated at 4°C half an hour, peptide along with ZIKV MOI 0.5 for 2 h at 4°C; normalized to 18-s rRNA; N = 3
Description: Viral attachment assay was adapted from a previous publication ([36]) with modifications. Briefly, primary human fetal astrocytes were pre-incubated at 4°C for half an hour and then treated with AMPs along with ZIKV infection at the MOI of 0.5. After infection at 4°C for 2 h, cultures were washed with fresh medium for three times and RNA was isolated from whole cells. ZIKV RNA was determined through real-time RT-PCR. Data were normalized to 18-s rRNA and presented as fold change compared with the ZIKV group. One experimental group was subjected to trypsin digestion to remove any attached virions. This group served as a positive control for the viral attachment experiment.
(A) Primary human fetal astrocytes were pre-incubated at 4°C for half an hour and then treated with antimicrobial peptides along with ZIKV infection at the MOI of 0.5 for 2 h. Cultures were then washed with fresh medium for three times. […] Data were normalized to 18-s rRNA and presented as fold change compared with the ZIKV group. The trypsin digestion group readily removes any attached virions and thus serves as positive control. […] After infection for 2 h, cultures were washed with fresh medium for three times and RNA was isolated from whole cells. ZIKV RNA was determined through real-time RT-PCR.

IFN-α2 = IFN-α2 expression in human fetal astrocytes (real-time RT-PCR); format: cell-based; settings: for IFN-α2 expression in ZIKV-infected fetal astrocytes: ZIKV MOI 0.5, AMPs 0.4 to 10 µM, 48 h; for IFN-α2 expression in ZIKV-infected fetal astrocytes / IFN-α2 expression in uninfected fetal astrocytes: normalized to 18-s rRNA, N = 3; for IFN-α2 expression in uninfected fetal astrocytes: AMP treatment 48 h
Description: Total mRNA was isolated with TRIzol Reagent (Thermo Fisher Scientific) and RNeasy Mini Kit (QIAGEN Inc., Valencia, CA, USA) following the manufacturer’s recommendations. Two real-time RT-PCR methods were used for the current studies. First, SYBR Green-based RT-PCR assay was used to determine intracellular ZIKV RNA in Vero cells. For this assay, reverse transcription was performed using Verso cDNA synthesis Kit (Thermo Fisher Scientific) and 1 µg of total RNA in a 15-µL final volume. The RT-PCR analyses were performed using 7.5-µL SYBR Green PCR Master Mix (Thermo Fisher Scientific) with 0.5-µL cDNA, 1.5-µL H2O, 5.5-µL oligonucleotide primer pairs at 10 µM. […] GG-3. PCR program: 1, 50°C for 2 min; 2, 95°C for 2 min; 3, 95°C for 15 s; 4, specific annealing temperature for 15 s; 5, 72°C for 1 min. Steps 2–4 were repeated 40 times. All samples were amplified in triplicate for analysis. Relative ZIKV RNA levels were determined and standardized with a GAPDH internal control using comparative ΔΔCT method ([35]). Second, TaqMan-based RT-PCR assay was used to determine intracellular ZIKV RNA and other gene expressions in Figures 3–6 and extracellular ZIKV RNA in Figure 3. The TaqMan assay was performed in a StepOne^TM Real-Time PCR system (Thermo Fisher Scientific). Primers used for TaqMan real-time RT-PCR were all from the Thermo Fisher Scientific, which included ZIKV (forward sequence: 5-[…]-3, reverse sequence: 5- […]-3, and probe sequence: 5′-[…]-3), IFN-α2 (Hs00265051_s1), IFN-β1 (Hs01077958_s1), eukaryotic 18-s rRNA (Hs99999901_s1), β-actin (Hs99999903_m1), and GAPDH (Catalog number: 4310884E). Relative ZIKV mRNA levels were determined and standardized with a GAPDH or 18-s rRNA endogenous control using comparative ΔΔCT method ([35]). […] For ZIKV in supernatants, RNA was extracted from the supernatants through TRIzol™ LS Reagent (Thermo Fisher Scientific, 10296028) following the manufacturer’s manual. […] Quantitative genomic RNA from ZIKV (NR-1838DQ, ATCC) was used as a standard to calculate viral copies.

[1] = uninfected human fetal astrocytes

| EC50 at 48 h (in vitro) | SMILES | Cytotoxicity to Vero cells at 10 µM (Vero cells) | ZIKV RNA levels in astrocytes at 4°C (viral attachment) (ZIKV strain MR766) | IFN-α2 expression in ZIKV-infected fetal astrocytes (IFN-α2) | Increase of IFN-α2 expression in uninfected fetal astrocytes (IFN-α2; uninfected human fetal astrocytes, difference not statistically significant) | IFN-α2 expression in uninfected fetal astrocytes (IFN-α2; [1]) |
| --- | --- | --- | --- | --- | --- | --- |
| > 50 µM | CC[C@H](C)[C@H](NC(=O)[C@H](CCCCN)NC(=O)[C@H](CCCCN)NC(=O)[C@H](Cc1ccccc1)NC(=O)[C@H](CC(C)C)NC(=O)[C@H](CCCCN)NC(=O)[C@H](CCCCN)NC(=O)[C@H](Cc1ccccc1)NC(=O)[C@H](CCCCN)NC(=O)[C@H](CCCCN)NC(=O)[C@H](CCCNC(=N)N)NC(=O)[C@H](Cc1ccccc1)NC(=O)[C@H](CCCNC(=N)N)NC(=O)[C@H](CCCCN)NC(=O)[C@H](Cc1ccccc1)NC(=O)[C@H](CCCNC(=N)N)NC(=O)CN)C(=O)N[C@@H](CO)C(=O)O [BMAP-18] (H-GRFKRFRKKFKKLFKKIS-OH; N-terminus and C-terminus assumed) | minimal cytotoxicity | did not alter the ZIKV RNA levels | significantly increased IFN-α2 expression levels in a dose-dependent manner | 7 folds | – |
| > 50 µM | CC[C@H](C)[C@H](NC(=O)[C@H](CCCNC(=N)N)NC(=O)[C@H](CCC(N)=O)NC(=O)[C@@H](NC(=O)[C@@H](NC(=O)[C@H](CCCNC(=N)N)NC(=O)[C@H](CCCCN)NC(=O)[C@H](Cc1ccccc1)NC(=O)CN)[C@@H](C)CC)C(C)C)C(=O)N[C@@H](CCCCN)C(=O)N[C@@H](CC(=O)O)C(=O)N[C@@H](Cc1ccccc1)C(=O)N[C@@H](CC(C)C)C(=O)N[C@@H](CCCNC(=N)N)C(=O)N[C@@H](CC(N)=O)C(=O)N[C@@H](CC(C)C)C(=O)N[C@H](C(N)=O)C(C)C [GF-17] (H-GFKRIVQRIKDFLRNLV-NH2; N-terminus and C-terminus assumed) | minimal cytotoxicity | did not alter the ZIKV RNA levels | significantly increased IFN-α2 expression levels in a dose-dependent manner | – | significantly increased IFN-α2 expression |
| > 50 µM | CC[C@H](C)[C@H](NC(=O)[C@H](CCCNC(=N)N)NC(=O)[C@H](CCC(N)=O)NC(=O)[C@@H](NC(=O)[C@@H](NC(=O)[C@@H](N)CCCNC(=N)N)[C@@H](C)CC)C(C)C)C(=O)N[C@@H](CCCCN)C(=O)N[C@@H](CC(=O)O)C(=O)N[C@@H](Cc1ccccc1)C(=O)N[C@@H](CC(C)C)C(=O)O [RI-10, reference compound] (H-RIVQRIKDFL-OH; N-terminus and C-terminus assumed) | minimal cytotoxicity | did not alter the ZIKV RNA levels | but not RI-10, significantly increased IFN-α2 expression levels | – | did not affect the expression levels of IFN-α2 |
